According to EP0350163A2, “Renin inhibitory peptides” (BEECHAM GROUP PLC, priority 1988, dated 1990):
Where a name gives a salt, the structure may show the parent alone.

Biological target: T1, human renin (Homo sapiens, UniProt P00797)
T1 construct: from tissue; host or cells: human plasma from the blood of healthy volunteers
T1 sequence (P00797 67-406): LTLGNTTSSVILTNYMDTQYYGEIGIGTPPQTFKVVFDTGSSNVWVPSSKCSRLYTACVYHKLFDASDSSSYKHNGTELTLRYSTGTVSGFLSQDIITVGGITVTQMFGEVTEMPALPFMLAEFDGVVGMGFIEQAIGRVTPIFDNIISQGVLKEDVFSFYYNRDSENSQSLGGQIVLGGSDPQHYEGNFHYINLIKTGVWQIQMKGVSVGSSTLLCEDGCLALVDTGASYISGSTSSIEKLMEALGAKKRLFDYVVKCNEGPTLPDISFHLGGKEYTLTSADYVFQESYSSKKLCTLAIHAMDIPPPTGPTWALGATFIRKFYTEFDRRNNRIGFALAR
Assay: In vitro human renin inhibition (renin activity in human plasma, angiotensin I radioimmunoassay)
Assay type: biochemical
Details: human plasma from healthy volunteers; angiotensin I difference between 37° and 4° for 2 h; linear regression of at least three concentrations; read-out: IC₅₀
Protocol: Renin inhibitory activity was estimated as the percentage change in renin activity in human plasma in the presence and absence of compound. The source of plasma was blood taken from healthy volunteers. Renin activity was defined by the difference in angiotensin I levels between two halves of a sample, one incubated at 37^o and the other at 4^o for 2 h. Angiotensin I levels were measured using a ¹²⁵I- angiotensin I radioimmunoassay kit (NEN/DuPont, Stevenage). Results were calculated as the mean of at least two, duplicate determinations and IC₅₀ values were calculated by linear regression analysis of at least three concentrations of compound.

SMILES	IC50
COc1cccc2c1OCC2CC(=O)N[C@@H](Cc1ccccc1)C(=O)N[C@@H](CC(C)C)C(=O)N[C@@H](CC1CCCCC1)[C@@H](O)CC(=O)NCC(C)C (stereo partly drawn) [E 3, 4-(S)-((7-Methoxy-2,3-dihydrobenzofuran-3-yl)acetyl-(S)-phenylalanyl-(S)-leucyl)amino-5-cyclohexyl-3-(S)-hydroxypentanoic acid isobutylamide hemihydrate]	50 nM
CC(C)CNC(=O)C[C@H](O)[C@H](CC1CCCCC1)NC(=O)[C@H](CC(C)C)NC(=O)[C@H](Cc1ccccc1)NC(=O)CC1COc2ccc([N+](=O)[O-])cc21 (stereo partly drawn) [E 5, 4-(S)-((5-Nitro-2,3-dihydrobenzofuran-3-yl)acetyl-(S)-phenylalanyl-(S)-leucyl)amino-5-cyclohexyl-3-(S)-hydroxypentanoic acid isobutylamide hemihydrate]	60 nM
CC(C)CNC(=O)C[C@H](O)[C@H](CC1CCCCC1)NC(=O)[C@H](CC(C)C)NC(=O)[C@H](Cc1ccccc1)NC(=O)CC1COc2ccc(N)cc21 (stereo partly drawn) [E 6, 4-(S)-((5-Amino-2,3-dihydrobenzofuran-3-yl)acetyl-(S)-phenylalanyl-(S)-leucyl)amino-5-cyclohexyl-3-(S)-hydroxypentanoic acid isobutylamide trifluoroacetate hemihydrate]	30 nM
CC(C)CNC(=O)C[C@H](O)[C@H](CC1CCCCC1)NC(=O)[C@H](CC(C)C)NC(=O)[C@H](Cc1ccccc1)NC(=O)CC1COc2ccc(NC(N)=O)cc21 (stereo partly drawn) [E 7, 4-(S)-((5-Ureido-2,3-dihydrobenzofuran-3-yl)acetyl-(S)-phenylalanyl-(S)-leucyl)amino-5-cyclohexyl-3-(S)-hydroxypentanoic acid isobutylamide dihydrate]	50 nM
CNS(=O)(=O)c1ccc2c(c1)C(CC(=O)N[C@@H](Cc1ccccc1)C(=O)N[C@@H](CC(C)C)C(=O)N[C@@H](CC1CCCCC1)[C@@H](O)CC(=O)NCC(C)C)CO2 (stereo partly drawn) [E 9, 4 (S)-((5-(Methylaminosulphonyl)-2,3-dihydrobenzofuran-3-yl)acetyl-(S)-phenylalanyl-(S)-leucyl)amino-5-cyclohexyl-3-(S)-hydroxypentanoic acid isobutylamide]	50 nM
CC(C)CNC(=O)C[C@H](O)[C@H](CC1CCCCC1)NC(=O)[C@H](CC(C)C)NC(=O)[C@H](Cc1ccccc1)NC(=O)CC1CS(=O)(=O)c2ccccc21 (stereo partly drawn) [Example E12, 4-(S)-((2,3-Dihydro-1,1-dioxobenzothiophene-3-yl)acetyl-(S)-phenylalanyl-(S)-leucyl)amino-5-cyclohexyl-3-(S)-hydroxypentanoic acid isobutylamide]	10 nM
CC(C)CNC(=O)C[C@H](O)[C@H](CC1CCCCC1)NC(=O)[C@H](CC(C)C)NC(=O)[C@H](Cc1ccccc1)NC(=O)CC1COc2ccc(CN)cc21 (stereo partly drawn) [Example E20a, 4-(S)-((5-(Aminomethyl)-2,3-dihydrobenzofuran-3-yl)acetyl-(S)-phenylalanyl-(S)-leucyl)amino-5-cyclohexyl-3-(S)-hydroxypentanoic acid isobutylamide hemi(trichloromethanate)]	30 nM
CC(C)CNC(=O)C[C@H](O)[C@H](CC1CCCCC1)NC(=O)[C@H](Cc1cnc[nH]1)NC(=O)[C@H](Cc1ccccc1)NC(=O)CC1COc2ccc(C(=O)OCc3ccccc3)cc21 (stereo partly drawn) [Example E23, 4-(S)-((5-Benzyloxycarbonyl)-2,3-dihydrobenzofuran-3-yl)acetyl-(S)-phenylalanyl-(S)-histidyl)amino-5-cyclohexyl-3-(S)-hydroxypentanoic acid isobutylamide hemihydrate]	470 nM
CC(C)CNC(=O)C[C@H](O)[C@H](CC1CCCCC1)NC(=O)[C@H](CC(C)C)NC(=O)[C@H](Cc1ccccc1)NC(=O)CC1CS(=O)(=O)c2cc(N)ccc21 (stereo partly drawn) [Example E29, 4-(S)-((6-Amino-2,3-dihydro-1,1-dioxobenzothiophene-3-yl)acetyl-(S)-phenylalanyl-(S)-leucyl)amino-5-cyclohexyl-3-(S)-hydroxypentanoic acid isobutylamide dihydrate]	10 nM
CC(C)CNC(=O)C[C@H](O)[C@H](CC1CCCCC1)NC(=O)[C@H](CC(C)C)NC(=O)[C@H](Cc1ccccc1)NC(=O)CC1CS(=O)(=O)c2cc(CN)ccc21 (stereo partly drawn) [Example E31a, 4-(S)-((6-Aminomethyl-2,3-dihydro-1,1-dioxobenzothiophene-3-yl)acetyl-(S)-phenylalanyl-(S)-leucyl)amino-5-cyclohexyl-3-(S)-hydroxypentanoic acid isobutylamide dihydrate]	8 nM
CC(C)CNC(=O)C[C@H](O)[C@H](CC1CCCCC1)NC(=O)[C@H](CC(C)C)NC(=O)[C@H](Cc1ccccc1)NC(=O)CC1COc2ccc(CNCC(=O)O)cc21 (stereo partly drawn) [Example E36a, 4-(S)-((5-(Carboxymethylaminomethyl)-2,3-dihydrobenzofuran-3-yl)acetyl-(S)-phenylalanyl-(S)-leucyl)amino-5-cyclohexyl-3-(S)-hydroxvoentanoic acid isobutylamide]	100 nM
CC(C)CNC(=O)C[C@H](O)[C@H](CC1CCCCC1)NC(=O)[C@H](Cc1c[nH]cn1)NC(=O)[C@H](Cc1ccccc1)NC(=O)CC1COc2ccc([N+](=O)[O-])cc21 (stereo partly drawn) [Example E39, 4-(S)-((5-Nitro-2,3-dihydrobenzofuran-3-yl)acetyl-(S)-phenylalanyl-(S)-histidyl)amino-5-cyclohexyl-3-(S)-hydroxypentanoic acid isobutylamide hydrate]	40 nM
CC(C)CNC(=O)C[C@H](O)[C@H](CC1CCCCC1)NC(=O)[C@H](CC(C)C)NC(=O)[C@H](Cc1ccccc1)NC(=O)CC1COc2ccc(S(=O)(=O)CC(=O)OC(C)(C)C)cc21 (stereo partly drawn) [Example E43, 4-(S)-((5-(tert-Butoxycarbonylmethanesulphonyl)-2,3-dihydrobenzofuran-3-yl)acetyl)-(S)-phenylalanyl-(S)-leucyl)amino-5-cyclohexyl-3-(S)-hydroxypentanoic acid isobutylamide hemihydrate]	8 nM
CC(C)CNC(=O)C[C@H](O)[C@H](CC1CCCCC1)NC(=O)[C@H](CC(C)C)NC(=O)[C@H](Cc1ccccc1)NC(=O)CC1CS(=O)(=O)c2ccc(C#N)cc21 (stereo partly drawn) [Example E45, 4-(S)-((5-Cyano-2,3-dihydro-1,1-dioxobenzothiophene-3-yl)acetyl-(S)-phenylalanyl-(S)-leucyl)amino-5-cyclohexyl-3-(S)-hydroxypentanoic acid isobutylamide]	9 nM
CC(C)CNC(=O)C[C@H](O)[C@H](CC1CCCCC1)NC(=O)[C@H](CC(C)C)NC(=O)[C@H](Cc1ccccc1)NC(=O)CC1CS(=O)(=O)c2ccc(CN)cc21 (stereo partly drawn) [Example E50, 4-(S)-((5-Aminomethyl-2,3-dihydro-1,1-dioxobenzothiophene-3-yl)acetyl-(S)-phenylalanyl-(S)-leucyl)amino-5-cyclohexyl-3-(S)-hydroxypentanoic acid isobutylamide]	10 nM
CC(C)CNC(=O)C[C@H](O)[C@H](CC1CCCCC1)NC(=O)[C@H](CC(C)C)NC(=O)[C@H](Cc1ccccc1)NC(=O)CC1COc2ccc(S(=O)(=O)CC(=O)O)cc21 (stereo partly drawn) [Example E56, 4-(S)-((5-(Carboxymethanesulphonyl)-2,3-dihydrobenzofuran-3-yl)acetyl-(S)-phenylalanyl-(S)-leucyl)amino-5-cyclohexyl-3-(S)-hydroxypentanoic acid isobutylamide, sodium salt]	60 nM
CC(C)CNC(=O)C[C@H](O)[C@H](CC1CCCCC1)NC(=O)[C@H](Cc1cnc[nH]1)NC(=O)[C@H](Cc1ccccc1)NC(=O)CC1CS(=O)(=O)c2cc(CN)ccc21 (stereo partly drawn) [Example E60, 4-(S)-((6-Aminomethyl-2,3-dihydro-1,1-dioxobenzothiophene-3-yl)acetyl-(S)-phenylalanyl-(S)-histidyl)amino-5-cyclohexyl-3-(S)-hydroxypentanoic acid isobutylamide bis(trifluoroacetate) sesquihydrate]	40 nM
